The record followed here is patent US9693556B2, “Herbicidal pyridazinone derivatives” (SYNGENTA LIMITED, priority 2011, dated 2017).

Holding throughout (type): in vivo
For assay [1], the system named is Alopecurus myosuroides (ALOMY). Kind of assay: Pre-emergence herbicidal glasshouse test on Alopecurus myosuroides. As to conditions: pre-emergence; 1000 g/h; evaluated after 13 days. The method in brief: (§1)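 Steps: sow seeds in standard soil; cultivate 1 d (pre-) or 8 d (post-emergence) at 24/16 °C, 14 h light, 65% humidity; spray 1000 g/h in acetone/water plus Tween 20; grow on, watering twice daily; score percentage damage after 13 d.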

Assay [2] deals with Setaria faberi (SETFA). Kind of assay: Pre-emergence herbicidal glasshouse test on Setaria faberi. Conditions: pre-emergence; 1000 g/h; evaluated after 13 days. The method in brief: as §1
In assay [3] the test system is Echinochloa crus-galli (ECHCG). In words: Pre-emergence herbicidal glasshouse test on Echinochloa crus-galli. As to conditions: pre-emergence; 1000 g/h; evaluated after 13 days. The method in brief: as §1
The test system of assay [4] is Solanum nigrum (SOLNI). Kind of assay: Pre-emergence herbicidal glasshouse test on Solanum nigrum. Conditions: pre-emergence; 1000 g/h; evaluated after 13 days. The method in brief: as §1
For assay [5], the system named is Amaranthus retoflexus (AMARE). Kind of assay: Pre-emergence herbicidal glasshouse test on Amaranthus retoflexus. Conditions: pre-emergence; 1000 g/h; evaluated after 13 days. The method in brief: as §1
For assay [6], the system named is Ipomoea hederacea (IPOHE). Kind of assay: Pre-emergence herbicidal glasshouse test on Ipomoea hederacea. Conditions: pre-emergence; 1000 g/h; evaluated after 13 days. The method in brief: as §1
For assay [7], the system named is Alopecurus myosuroides (ALOMY). Kind of assay: Post-emergence herbicidal glasshouse test on Alopecurus myosuroides. Conditions: post-emergence; 1000 g/h; evaluated after 13 days. The method in brief:
as §1

Assay [8] deals with Setaria faberi (SETFA). In words: Post-emergence herbicidal glasshouse test on Setaria faberi. Conditions: post-emergence; 1000 g/h; evaluated after 13 days. The gist of the method: as §1
Assay [9] relates to Echinochloa crus-galli (ECHCG). Kind of assay: Post-emergence herbicidal glasshouse test on Echinochloa crus-galli. As to conditions: post-emergence; 1000 g/h; evaluated after 13 days. The method in brief:
as §1

Assay [10] deals with Solanum nigrum (SOLNI). In words: Post-emergence herbicidal glasshouse test on Solanum nigrum. As to conditions: post-emergence; 1000 g/h; evaluated after 13 days. The gist of the method:
as §1

The subject of assay [11] is Amaranthus retoflexus (AMARE). Kind of assay: Post-emergence herbicidal glasshouse test on Amaranthus retoflexus. As to conditions: post-emergence; 1000 g/h; evaluated after 13 days. The method in brief:
as §1

Assay [12] relates to Ipomoea hederacea (IPOHE). Kind of assay: Post-emergence herbicidal glasshouse test on Ipomoea hederacea. Conditions: post-emergence; 1000 g/h; evaluated after 13 days. The method in brief:
as §1

As for `Cc1c(-c2cnn(C(C)(C)C)c(=O)c2O)ccc(S(C)(=O)=O)c1C1=NOCC1` [Compound 1.131], the “PRE Application ALOMY herbicidal damage (five point scale)” value (shortened to “PRE Application ALOMY herbicidal damage”) in [1] is on record as 1 (1=0-19% damage). Further, in assay [2], the “PRE Application SETFA herbicidal damage (five point scale)” value (shortened to “PRE Application SETFA herbicidal damage”) was 1 (1=0-19% damage). Also, in assay [3], the “PRE Application ECHCG herbicidal damage (five point scale)” value (shortened to “PRE Application ECHCG herbicidal damage”) is 1 (1=0-19% damage). Further, the “PRE Application SOLNI herbicidal damage (five point scale)” value (shortened to “PRE Application SOLNI herbicidal damage”) in [4] is 4 (4=60-79% damage). The “PRE Application AMARE herbicidal damage (five point scale)” value (shortened to “PRE Application AMARE herbicidal damage”) in [5] is 3 (3=40-59% damage). Besides, in assay [6], the “PRE Application IPOHE herbicidal damage (five point scale)” value (shortened to “PRE Application IPOHE herbicidal damage”) is listed as 1 (1=0-19% damage). Further, the “POST Application ALOMY herbicidal damage (five point scale)” value (shortened to “POST Application ALOMY herbicidal damage”) in [7] is given as 4 (4=60-79% damage). Also, in assay [8], the “POST Application SETFA herbicidal damage (five point scale)” value (“POST Application SETFA herbicidal damage” below) is on record as 4 (4=60-79% damage). The “POST Application ECHCG herbicidal damage (five point scale)” value (from here on “POST Application ECHCG herbicidal damage”) in [9] is listed as 5 (5=80-100% damage). Also, the “POST Application SOLNI herbicidal damage (five point scale)” value (shortened to “POST Application SOLNI herbicidal damage”) in assay [10] is listed as 5 (5=80-100% damage). Besides, in assay [11], the “POST Application AMARE herbicidal damage (five point scale)” value (“POST Application AMARE herbicidal damage” below) is 5 (5=80-100% damage). The “POST Application IPOHE herbicidal damage (five point scale)” value (from here on “POST Application IPOHE herbicidal damage”) in assay [12] was 5 (5=80-100% damage).

As for `CC(C)(C)n1ncc(-c2c(Cl)cccc2Cl)c(O)c1=O` [Compound 1.133], the “PRE Application ALOMY herbicidal damage” value in [1] was 1 (1=0-19% damage). Besides, the “PRE Application SETFA herbicidal damage” value in [2] is on record as 1 (1=0-19% damage). For the same molecule, the “PRE Application ECHCG herbicidal damage” value in [3] was 1 (1=0-19% damage). Besides, the “PRE Application SOLNI herbicidal damage” value in assay [4] was 1 (1=0-19% damage). Further, the “PRE Application AMARE herbicidal damage” value in assay [5] is 1 (1=0-19% damage). Further, the “PRE Application IPOHE herbicidal damage” value in [6] is recorded as 1 (1=0-19% damage). The “POST Application ALOMY herbicidal damage” value in [7] is 1 (1=0-19% damage). Further, in [8], the “POST Application SETFA herbicidal damage” value is listed as 1 (1=0-19% damage). In addition, the “POST Application ECHCG herbicidal damage” value in [9] was 3 (3=40-59% damage). Besides, the “POST Application SOLNI herbicidal damage” value in assay [10] is 2 (2=20-39% damage). For the same molecule, in [11], the “POST Application AMARE herbicidal damage” value was 1 (1=0-19% damage). Moreover, the “POST Application IPOHE herbicidal damage” value in assay [12] was 2 (2=20-39% damage).

Regarding `CN(C)c1nc(C(F)(F)F)ccc1-c1cnn(C)c(=O)c1O` [Compound 1.134], in assay [1], the “PRE Application ALOMY herbicidal damage” value is listed as 1 (1=0-19% damage). In addition, the “PRE Application SETFA herbicidal damage” value in [2] is listed as 1 (1=0-19% damage). Further, in assay [3], the “PRE Application ECHCG herbicidal damage” value was 1 (1=0-19% damage). In assay [4], the “PRE Application SOLNI herbicidal damage” value is given as 5 (5=80-100% damage). In addition, in assay [5], the “PRE Application AMARE herbicidal damage” value is on record as 5 (5=80-100% damage). The “PRE Application IPOHE herbicidal damage” value in [6] is listed as 2 (2=20-39% damage). Also, the “POST Application ALOMY herbicidal damage” value in assay [7] is 1 (1=0-19% damage). The “POST Application SETFA herbicidal damage” value in assay [8] is recorded as 2 (2=20-39% damage). In addition, the “POST Application ECHCG herbicidal damage” value in [9] is recorded as 2 (2=20-39% damage). Besides, the “POST Application SOLNI herbicidal damage” value in [10] is recorded as 5 (5=80-100% damage). In [11], the “POST Application AMARE herbicidal damage” value is listed as 5 (5=80-100% damage). In assay [12], the “POST Application IPOHE herbicidal damage” value is given as 5 (5=80-100% damage).

`CCS(=O)(=O)c1nc(C(F)(F)F)ccc1-c1cnn(C)c(=O)c1O` [Compound 1.135]: the “PRE Application ALOMY herbicidal damage” value in [1] was 4 (4=60-79% damage). Moreover, in [2], the “PRE Application SETFA herbicidal damage” value is 5 (5=80-100% damage). The “PRE Application ECHCG herbicidal damage” value in [3] is recorded as 5 (5=80-100% damage). Further, the “PRE Application SOLNI herbicidal damage” value in [4] is listed as 5 (5=80-100% damage). In addition, the “PRE Application AMARE herbicidal damage” value in [5] is given as 5 (5=80-100% damage). Besides, the “PRE Application IPOHE herbicidal damage” value in [6] is 5 (5=80-100% damage). In assay [7], the “POST Application ALOMY herbicidal damage” value is listed as 4 (4=60-79% damage). Also, in assay [8], the “POST Application SETFA herbicidal damage” value is 5 (5=80-100% damage). Besides, the “POST Application ECHCG herbicidal damage” value in [9] was 5 (5=80-100% damage). The “POST Application SOLNI herbicidal damage” value in assay [10] is 5 (5=80-100% damage). Also, in assay [11], the “POST Application AMARE herbicidal damage” value is on record as 5 (5=80-100% damage). Further, the “POST Application IPOHE herbicidal damage” value in [12] is on record as 5 (5=80-100% damage).

Regarding `Cn1ncc(-c2ccc(S(C)(=O)=O)c(OCC(F)(F)F)c2Cl)c(O)c1=O` [Compound 1.137], the “PRE Application ALOMY herbicidal damage” value in assay [1] is on record as 1 (1=0-19% damage). Also, in [2], the “PRE Application SETFA herbicidal damage” value is 1 (1=0-19% damage). Also, in [3], the “PRE Application ECHCG herbicidal damage” value is 1 (1=0-19% damage). Besides, the “PRE Application SOLNI herbicidal damage” value in assay [4] is reported as 3 (3=40-59% damage). Besides, in [5], the “PRE Application AMARE herbicidal damage” value is 2 (2=20-39% damage). Moreover, the “PRE Application IPOHE herbicidal damage” value in assay [6] is listed as 1 (1=0-19% damage). The “POST Application ALOMY herbicidal damage” value in [7] was 1 (1=0-19% damage). In addition, in assay [8], the “POST Application SETFA herbicidal damage” value is 5 (5=80-100% damage). The “POST Application ECHCG herbicidal damage” value in assay [9] is 5 (5=80-100% damage). Further, the “POST Application SOLNI herbicidal damage” value in [10] is reported as 5 (5=80-100% damage). For the same molecule, in assay [11], the “POST Application AMARE herbicidal damage” value is 5 (5=80-100% damage). Further, in assay [12], the “POST Application IPOHE herbicidal damage” value was 5 (5=80-100% damage).

Take `Cn1ncc(-c2cccn(-c3cccc(C#N)c3)c2=O)c(O)c1=O` [Compound 1.138]: in [1], the “PRE Application ALOMY herbicidal damage” value is recorded as 1 (1=0-19% damage). Moreover, in [2], the “PRE Application SETFA herbicidal damage” value is recorded as 1 (1=0-19% damage). For the same molecule, the “PRE Application ECHCG herbicidal damage” value in assay [3] is recorded as 1 (1=0-19% damage). Besides, in assay [4], the “PRE Application SOLNI herbicidal damage” value was 1 (1=0-19% damage). Moreover, in [5], the “PRE Application AMARE herbicidal damage” value is 1 (1=0-19% damage). Besides, in assay [6], the “PRE Application IPOHE herbicidal damage” value is 1 (1=0-19% damage). Further, the “POST Application ALOMY herbicidal damage” value in assay [7] is reported as 1 (1=0-19% damage). The “POST Application SETFA herbicidal damage” value in assay [8] is on record as 5 (5=80-100% damage). Also, in assay [9], the “POST Application ECHCG herbicidal damage” value is recorded as 4 (4=60-79% damage). In addition, the “POST Application SOLNI herbicidal damage” value in assay [10] is reported as 5 (5=80-100% damage). Further, the “POST Application AMARE herbicidal damage” value in assay [11] is on record as 5 (5=80-100% damage). In assay [12], the “POST Application IPOHE herbicidal damage” value was 1 (1=0-19% damage).

For `C=C(C)c1ccc(-c2cnn(C)c(=O)c2O)c(S(C)(=O)=O)c1` [Compound 1.140], in [1], the “PRE Application ALOMY herbicidal damage” value is given as 5 (5=80-100% damage). Besides, the “PRE Application SETFA herbicidal damage” value in assay [2] is listed as 1 (1=0-19% damage). Moreover, the “PRE Application ECHCG herbicidal damage” value in assay [3] is 5 (5=80-100% damage). Also, the “PRE Application SOLNI herbicidal damage” value in assay [4] was 5 (5=80-100% damage). The “PRE Application AMARE herbicidal damage” value in assay [5] is 5 (5=80-100% damage). Also, the “PRE Application IPOHE herbicidal damage” value in assay [6] is listed as 2 (2=20-39% damage). Also, in assay [7], the “POST Application ALOMY herbicidal damage” value is recorded as 5 (5=80-100% damage). In addition, in [8], the “POST Application SETFA herbicidal damage” value is on record as 3 (3=40-59% damage). Moreover, in assay [9], the “POST Application ECHCG herbicidal damage” value was 5 (5=80-100% damage). In [10], the “POST Application SOLNI herbicidal damage” value is given as 5 (5=80-100% damage). In addition, in [11], the “POST Application AMARE herbicidal damage” value was 5 (5=80-100% damage). Moreover, in assay [12], the “POST Application IPOHE herbicidal damage” value is 5 (5=80-100% damage).
